Source: PubChem BioAssay AID179 (DTP/NCI, 2004)
Values joined by “and” are separate entries in the source; they are usually repeats but may differ in a detail not shown here. Equal entries are not always repeated. Active and inactive are the calls of the source.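 The calls were made as follows: active = compounds giving half or more protection of infected cells from virus-caused growth loss, again on retest; inactive = the rest.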

Tested on: CEM cells HIV-1 protection, formazan growth assay
Experiment: NCI AIDS Antiviral Assay
Conditions: for IC50: measured here: growth of uninfected CEM cells
Method in brief: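 Steps: treat uninfected and HIV-1-infected human CEM cells at five drug levels; quantify growth by soluble formazan; retest any compound reaching 50% protection; classify actives from the retest.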

## OCCOCCO[P+]1(OCCOCCO)n2c3ccc2C(c2ccccc2)=C2C=CC(=N2)C(c2ccccc2)=c2ccc(n21)=C(c1ccccc1)C1=NC(=C3c2ccccc2)C=C1
  EC50: > 100 µM
  IC50: 0.0794 µM

## N#CC12COC3(CCCCC3C1(C#N)C#N)OC2=N (stereo not given)
  EC50: > 200 µM
  IC50: 3.98 µM

## Cc1c2ccccc2nc(CSCCO)[n+]1[O-]
  EC50: > 200 µM
  IC50: > 200 µM

## COc1cccc2c(NNc3ccccc3)c3ccc([N+](=O)[O-])cc3nc12
  EC50: > 22.4 µM
  IC50: 16.2 µM

## CCOC(=O)c1c(NC(=O)c2cccs2)sc2c1CCCC2
  EC50: > 151 µM
  IC50: > 151 µM

## COc1ccc(S(=O)(=O)N(C)c2ccccc2)cc1
  EC50: > 200 µM
  IC50: 7.76 µM

## CC1=C/C(=C(\c2cc(C)c(O)c(C(=O)O)c2)c2c(Cl)cccc2Cl)C=C(C(=O)O)C1=O
  outcome: inactive

## COC(=O)C(=O)C(C(=O)C=C(C)C)C(=O)C(=O)Nc1cccc(C(C)=O)c1 (stereo not given)
  EC50: > 251 µM

## COc1ccc(C2C(C#N)=C(O)NC(O)=C2C#N)cc1OC
  EC50: > 120 µM
  IC50: > 120 µM

## NNC(=O)c1n[nH]n(N)c1=S
  EC50: > 200 µM
  IC50: > 200 µM

## CCOC(=O)C(=O)/C(=C/n1c(=S)[nH]c2cc(C)ccc21)C(=O)OCC
  EC50: > 200 µM
  IC50: > 200 µM

## CC12C=C3CC(OC(=O)c4ccccc4)CCC3(O1)c1ccccc12 (stereo not given)
  EC50: > 57.5 µM
  IC50: 32.4 µM

## COc1cccc2c1C(c1ccc3ccccc3c1)OC2=O (stereo not given)
  EC50: > 46.8 µM
  IC50: 25.1 µM

## Cc1cc(NC(=O)Nc2ccc(N=Nc3cc(S(=O)(=O)O)c4cccc(S(=O)(=O)O)c4c3)c(C)c2)ccc1N=Nc1cc(S(=O)(=O)O)c2cccc(S(=O)(=O)O)c2c1
  EC50: 20 µM
  IC50: > 100 µM

## O=c1[nH][nH]c(=O)n1CCCCCCn1c(=O)[nH][nH]c1=O
  EC50: > 200 µM
  IC50: > 200 µM

## COC(=O)CCC(=O)CC(=O)C(=O)Nc1c(Cl)cc([N+](=O)[O-])cc1Cl
  EC50: > 18.2 µM
  IC50: > 18.2 µM

## COc1cc(C=C2C(=O)OC(C)(C)OC2=O)cc(OC)c1OC
  EC50: > 776 µM
  IC50: 83.2 µM

## CC(=O)Oc1cccc2c1C(=O)C1CC(O)C(O)C3OC(C)(C)OC2(C)C13 (stereo not given)
  EC50: > 468 µM
  IC50: > 468 µM

## [Cl-].[Rh+3].c1ccc(-c2ccnc3c2ccc2c(-c4ccccc4)ccnc23)cc1.c1ccc(-c2ccnc3c2ccc2c(-c4ccccc4)ccnc23)cc1.c1ccc(-c2ccnc3c2ccc2c(-c4ccccc4)ccnc23)cc1
  EC50: > 11 µM
  IC50: 7.08 µM

## Clc1ccc2nc3occ(Br)c3cc2c1
  EC50: > 13.2 µM
  IC50: > 13.2 µM

## O=S(=O)(c1ccccc1)C1CC(c2nc3ccccc3[nH]2)=NO1 (stereo not given)
  EC50: > 200 µM
  IC50: 132 µM

## OCCCN(CCO)CCN(CCCO)CCCO
  EC50: > 200 µM
  IC50: > 200 µM

## COC(=O)C1=NC(=S)N=C(C(=O)OC)C12Cc1ccccc1C2=O
  EC50: > 724 µM
  IC50: 214 µM

## CCOC(=O)c1cn(-c2ccc([N+](=O)[O-])cc2)c(=S)n2c1nc1ccccc12
  EC50: > 200 µM
  IC50: 9.33 µM

## COC(O)C12OC3CO[Si](C(C)C)(C(C)C)O[Si](C(C)C)(C(C)C)OC3C1Oc1nc(=O)ccn12 (stereo not given)
  EC50: > 200 µM
  IC50: 30.2 µM

## CN(C)c1ccc(/C=C(\NC(=O)c2ccccc2)C2=NC(CC(=O)O)C(=O)O2)cc1 (stereo not given)
  EC50: > 50.1 µM
  IC50: > 50.1 µM

## Cn1c(=O)c2nccnc2n(C)c1=O
  EC50: 178 µM
  IC50: > 200 µM

## N#Cc1c(N2CCCC2)nsc1NCc1ccccc1
  EC50: > 200 µM
  IC50: > 200 µM

## Cn1c(C(=O)c2cc3ccccc3n2C)cc2ccccc21
  EC50: > 18.2 µM
  IC50: > 18.2 µM

## O=C1C(=Cc2ccco2)C(=O)C2CCCCC12 (stereo not given)
  EC50: > 200 µM
  IC50: 166 µM

## c1ccc(Nc2nnc(CSc3nc(-c4ccccc4)c(-c4ccccc4)[nH]3)s2)cc1
  EC50: > 81.3 µM
  IC50: 72.4 µM

## COC(=O)Nc1nc2ccc(C(=O)c3ccc[nH]3)cc2[nH]1
  EC50: > 200 µM
  IC50: 0.977 µM and 1.66 µM

## Nc1nc(Cl)c2ncn(C3CC=C(CO)CC3)c2n1 (stereo not given)
  EC50: > 891 µM
  IC50: 51.3 µM

## COc1cc(O)c(/C=N\O)c(OC)c1
  EC50: > 912 µM
  IC50: 83.2 µM

## CC12C(C(=O)O)C1(c1ccccc1)C2C(=O)O (stereo not given)
  EC50: > 1070 µM
  IC50: > 1070 µM

## CC1(C)Oc2ncnc(N)c2C1c1ccccc1 (stereo not given)
  EC50: > 1020 µM
  IC50: 457 µM

## N#Cc1c2c([nH]c(=O)c1C#N)CCCC2
  EC50: > 200 µM
  IC50: > 200 µM

## CCC1OC2CS(=O)(=O)CC2O1 (stereo not given)
  EC50: > 1290 µM
  IC50: > 1290 µM

## CN(C)c1ccc(/C=C2\C=Cc3ccccc32)c(F)c1
  EC50: > 14.1 µM
  IC50: > 14.1 µM

## CC(=O)OCC1(CNc2nc(N)ncc2C#N)CC(CCc2ccccc2)C1 (stereo not given)
  EC50: > 200 µM
  IC50: 17.4 µM

## Cc1ccc(S(=O)c2sccc2C=O)cc1 (stereo not given)
  EC50: > 200 µM
  IC50: 9.77 µM

## COc1ccc(C2C(Cl)C(=O)N2NC(=O)c2ccccc2O)cc1OC (stereo not given)
  EC50: > 50.1 µM
  IC50: 41.7 µM

## CC(C)OP(=O)(OC(C)C)C(=NCCO)NNc1ccc([N+](=O)[O-])cc1
  EC50: > 339 µM
  IC50: 29.5 µM

## CC1=CC(C)N(C(=O)c2ccc(Cl)cc2)CCN1C(=O)c1ccc(Cl)cc1 (stereo not given)
  EC50: > 44.7 µM
  IC50: 33.9 µM

## Cn1cc(NC(=O)Nc2cc(C(=O)Nc3cc(C(=O)Nc4ccc(S(=O)(=O)O)c5cccc(S(=O)(=O)O)c45)n(C)c3)n(C)c2)cc1C(=O)Nc1cc(C(=O)Nc2ccc(S(=O)(=O)O)c3cccc(S(=O)(=O)O)c23)n(C)c1
  outcome: inactive

## O=C(CSc1nnc(-c2ccc(N=Cc3ccc(Cl)cc3)cc2)o1)Nc1cccc([N+](=O)[O-])c1
  EC50: > 5.5 µM
  IC50: 2.24 µM

## CSc1nc(NC2OC(CO)C(O)C(O)C2O)cc(=O)[nH]1 (stereo not given)
  outcome: inactive

## C[CH2][Sn]([CH2]C)([O]C(=O)c1c(F)cccc1F)[O][Sn]([CH2]C)([CH2]C)[O]C(=O)c1c(F)cccc1F
  EC50: > 72.4 µM
  IC50: 4.79 µM

## CCCCN1CCC(O)(c2cc(C(=O)O)[nH]c2-c2cc(C)no2)C1=O (stereo not given)
  EC50: > 200 µM
  IC50: 70.8 µM

## O=C1NC(N2CCOCC2)=N/C1=C\c1ccco1
  EC50: > 200 µM
  IC50: > 200 µM

## O=S1(=O)c2ccccc2N(O)C2=NCCN21
  EC50: > 550 µM
  IC50: 91.2 µM

## CN(C)CCCCNc1c2c(nc3c(Cl)cccc13)CCC2
  EC50: > 794 µM
  IC50: 16.6 µM

## COc1ccc([C@H]2C=[N+]([O-])O[C@H](OC3CCCC3)[C@@H]2OC(C)=O)cc1OC
  EC50: > 200 µM
  IC50: 11.2 µM

## CCOC(=O)C(CC[C@@H]1N[C@H](C(N)=O)Cc2c1[nH]c1ccccc21)C(=O)OCC
  EC50: > 89.1 µM
  IC50: > 89.1 µM

## CCN(CC)C(=S)SS(=O)(=O)c1ccccc1[N+](=O)[O-]
  EC50: > 200 µM
  IC50: 7.24 µM

## O=C(Nc1ccc(Cl)c(Cl)c1)C(=O)C(C1OC(=O)c2ccccc21)[N+](=O)[O-] (stereo not given)
  EC50: > 87.1 µM
  IC50: > 87.1 µM

## O=C(O)/C=C/c1ccccc1[N+](=O)[O-]
  EC50: > 257 µM
  IC50: > 257 µM

## CCOC(=O)n1[nH][nH]c2c(c(=O)n(C)c(=O)n2C)n1C(=O)OCC
  EC50: > 200 µM
  IC50: > 200 µM

## COc1ccc2ccccc2c1Br
  EC50: > 200 µM
  IC50: > 200 µM

## CC1(C)CNC[C@](C)(OCc2ccccc2)N1
  EC50: > 200 µM
  IC50: > 200 µM

## CC(C)(C)C1(O)Cc2ccccc2C(=O)O1 (stereo not given)
  EC50: > 309 µM
  IC50: > 309 µM

## O=C(c1ccccc1)N1N=C(C(F)(F)F)CC1(O)C(F)(F)F (stereo not given)
  EC50: > 200 µM
  IC50: > 200 µM

## CN1CCN(c2nc3c(c(=O)n(C)c(=O)n3C)n2C)CC1
  EC50: > 759 µM
  IC50: > 759 µM

## CC(=O)C(=[N+]=[N-])C(=O)OCCOC(=O)C(=[N+]=[N-])C(C)=O
  EC50: > 200 µM
  IC50: > 200 µM

## CCOC(=O)C1CC2OC2CC1C(=O)OCC (stereo not given)
  EC50: > 200 µM
  IC50: > 200 µM

## CC(=O)N(CCCCNC(=O)C(F)(F)F)CCCNC(=O)C(F)(F)F
  EC50: > 200 µM
  IC50: > 200 µM

## COC(=O)c1ccc(/C=C2\Oc3ccccc3C2=O)cc1
  EC50: > 200 µM
  IC50: > 200 µM

## CC1(C)Oc2ccc3ccccc3c2[C@@H](OC(=O)C23CCC(C)(C(=O)O2)C3(C)C)[C@H]1OC(=O)C12CCC(C)(C(=O)O1)C2(C)C (stereo not given in full)
  EC50: > 200 µM
  IC50: 3.55 µM

## C[C@@H](NC(=O)c1ccccc1SC(=O)NCCCCl)C(N)=O
  EC50: 3.39 µM
  IC50: 49 µM

## C/C=C/C=N/N(c1nnc(-c2ccccc2)c(-c2ccccc2)n1)S(=O)(=O)c1ccc(C)cc1
  EC50: > 21.4 µM
  IC50: 7.59 µM

## O=C(Cn1c(C(=O)c2ccccc2)nc2ccccc21)c1ccccc1
  EC50: > 200 µM
  IC50: 7.41 µM

## CCOC(=O)/C(=N\O)C1=CSC2=NNC(C)(C)N12
  EC50: > 200 µM
  IC50: 115 µM

## COC(=O)c1cc2ccc(OC(C)=O)c(OC(C)=O)c2cn1
  EC50: > 166 µM
  IC50: 0.851 µM

## CCCCNC(=S)Nc1nc(C(=O)NNC(=O)c2ccccc2)cs1
  EC50: > 200 µM
  IC50: 11.2 µM

## CCOP(=O)(OCC)C(N)Cc1ccc(OC)c(OC)c1 (stereo not given)
  EC50: > 200 µM
  IC50: > 200 µM

## CCOC(=O)c1c(-c2ccccc2)c(C(OC(c2ccccc2)c2c(-c3ccccc3)c(C(=O)OCC)n3ccccc23)c2ccccc2)c2ccccn12 (stereo not given)
  EC50: > 5.25 µM
  IC50: > 5.25 µM

## CC(=O)c1cccc(NC2C(N)C(NC(=O)N(C)C)(C(C)O)C(C)(O)C2(O)COC(=O)c2c(C)cccc2O)c1 (stereo not given)
  EC50: > 64.6 µM
  IC50: 0.0427 µM

## COc1ccc(NC(C)=O)cc1N1C(=O)/C(=C\c2cccc(Oc3ccccc3)c2)S(=O)(=O)C1c1ccccc1 (stereo not given)
  EC50: > 200 µM
  IC50: 33.1 µM

## O=c1oc2ccccc2n1CCN1CCCCC1
  EC50: > 200 µM
  IC50: > 200 µM

## Clc1ccc(C2SCc3nc4ccccc4n32)cc1Cl (stereo not given)
  outcome: inactive

## COc1ccc(-n2c(Cn3nnc(-c4cccnc4)n3)nn(C3OC(COC(=O)c4ccccc4)C(OC(=O)c4ccccc4)C3OC(=O)c3ccccc3)c2=S)cc1 (stereo not given)
  EC50: > 100 µM
  IC50: > 100 µM

## C[N+]12CC[N+](C)(CC1)CC2
  EC50: > 832 µM
  IC50: > 832 µM

## CNC(=S)N/N=C(C)\C(=N/NC(=S)NC)c1ccccc1
  EC50: > 200 µM
  IC50: 29.5 µM

## Oc1[nH]c2ccccc2c1N=NC(=S)N1CCCC1
  EC50: > 200 µM
  IC50: 1.55 µM

## CC1(C)CCCC2(C)[C@@H]1CC[C@@]13CC(=O)[C@@](C)(CC[C@@H]21)C3 (stereo not given in full)
  EC50: > 91.2 µM
  IC50: > 91.2 µM
